US12421205B2, “GLP-1 receptor agonist” (HYUNDAI PHARM CO., LTD., priority 2019, dated 2025)

Experiments:
hERG = molecular target: T1, hERG (Homo sapiens, UniProt Q12809); test: hERG inhibition test (Predictor hERG Fluorescence Polarization assay kit); format: binding; conditions: probe kit Tracer (fluorescent hERG ligand), hERG % inhibition at 10 uM, relative to E-4031 and solvent control
T1 construct: purchased Invitrogen PV5365
Method in brief: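 Competitive fluorescence-polarization binding of fluorescent tracer to hERG membrane preparation, 2.5 h at room temperature, mP read at 531/579 nm. % inhibition at 10 uM test compound, scaled between solvent control (0%) and E-4031 (100%).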

human GLP-1 receptor = molecular target: T2, human GLP-1 receptor (Homo sapiens, UniProt P43220); test: cAMP activity test (cAMP dynamic HTRF kit) in CHO-K1/GLP-1 receptor-expressing cells; format: cell-based; conditions: cAMP activity, CHO-K1/GLP-1 receptor-expressing cells; read-out: EC50
T2 construct: host or cells: CHO-K1
T2 sequence (P43220 24-463): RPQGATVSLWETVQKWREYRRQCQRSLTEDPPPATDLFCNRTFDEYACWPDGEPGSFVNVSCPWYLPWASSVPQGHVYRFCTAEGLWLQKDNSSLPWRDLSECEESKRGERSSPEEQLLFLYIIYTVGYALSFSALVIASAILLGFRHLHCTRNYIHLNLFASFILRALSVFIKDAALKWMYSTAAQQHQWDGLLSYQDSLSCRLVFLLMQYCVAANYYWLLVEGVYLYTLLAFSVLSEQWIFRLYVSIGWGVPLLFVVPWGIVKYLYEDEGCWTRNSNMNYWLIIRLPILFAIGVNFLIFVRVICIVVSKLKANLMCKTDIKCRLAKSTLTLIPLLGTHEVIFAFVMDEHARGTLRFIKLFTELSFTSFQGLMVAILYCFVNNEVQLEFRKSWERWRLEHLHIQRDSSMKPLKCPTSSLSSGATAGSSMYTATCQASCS
Method in brief: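 Cells in HBSS with 0.1% BSA, 0.5 mM IBMX and 5 mM HEPES, then lysed; cAMP-d2 and anti-cAMP cryptate added for 3 h. HTRF read-out, where FRET signal is inversely proportional to intracellular cAMP.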

T1 sequence (Q12809 whole entry): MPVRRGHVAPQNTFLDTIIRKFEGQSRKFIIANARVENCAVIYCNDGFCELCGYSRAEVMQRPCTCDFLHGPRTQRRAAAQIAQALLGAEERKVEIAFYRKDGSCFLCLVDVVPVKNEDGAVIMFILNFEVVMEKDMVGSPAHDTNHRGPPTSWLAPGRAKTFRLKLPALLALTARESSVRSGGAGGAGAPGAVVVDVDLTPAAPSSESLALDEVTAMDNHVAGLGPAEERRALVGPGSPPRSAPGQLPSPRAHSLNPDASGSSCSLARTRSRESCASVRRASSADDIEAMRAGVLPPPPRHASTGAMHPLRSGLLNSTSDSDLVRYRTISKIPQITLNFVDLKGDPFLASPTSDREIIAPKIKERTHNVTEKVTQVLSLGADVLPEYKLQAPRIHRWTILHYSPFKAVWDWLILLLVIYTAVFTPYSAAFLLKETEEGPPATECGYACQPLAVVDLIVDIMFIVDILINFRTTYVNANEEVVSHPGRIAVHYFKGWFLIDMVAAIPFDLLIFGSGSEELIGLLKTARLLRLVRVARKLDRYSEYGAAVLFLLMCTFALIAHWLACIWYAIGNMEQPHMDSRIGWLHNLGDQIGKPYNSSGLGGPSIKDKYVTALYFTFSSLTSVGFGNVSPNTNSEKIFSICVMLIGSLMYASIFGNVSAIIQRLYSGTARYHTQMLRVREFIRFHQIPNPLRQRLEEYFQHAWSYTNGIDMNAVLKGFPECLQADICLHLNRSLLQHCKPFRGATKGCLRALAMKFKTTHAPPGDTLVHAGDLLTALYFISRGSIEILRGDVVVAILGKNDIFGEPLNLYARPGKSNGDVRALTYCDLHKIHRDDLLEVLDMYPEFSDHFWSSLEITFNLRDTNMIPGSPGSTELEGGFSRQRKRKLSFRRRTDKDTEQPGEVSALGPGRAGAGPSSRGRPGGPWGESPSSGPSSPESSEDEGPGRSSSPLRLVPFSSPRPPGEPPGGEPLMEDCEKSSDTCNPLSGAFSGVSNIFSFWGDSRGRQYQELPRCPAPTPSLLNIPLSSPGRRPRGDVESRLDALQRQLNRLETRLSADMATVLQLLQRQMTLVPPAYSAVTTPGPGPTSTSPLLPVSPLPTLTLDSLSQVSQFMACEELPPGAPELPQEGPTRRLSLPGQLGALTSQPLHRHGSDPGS

SMILES | inhibition at 2.5 h, 10 µM (hERG) | EC50 (human GLP-1 receptor)
O=C(O)c1ccc2nc(Cc3ccc(-c4cccc(OCc5ccc(Cl)cc5F)n4)c(F)c3)n(C[C@@H]3CCCO3)c2c1 [Example 60, (S)-2-(4-(6-((4-chloro-2-fluorobenzyl)oxy)pyridin-2-yl)-3-fluorobenzyl)-1-((tetrahydrofuran-2-yl)methyl)-1H-benzo[d]imidazole-6-carboxylic acid] | -5.42% | < 3.2 nM
COCCn1c(Cc2c(F)cc(-c3cccc(OCc4ccc(Cl)cc4F)c3)cc2F)nc2ccc(C(=O)O)cc21 [Example 48, 2-((3′-(4-chloro-2-fluorobenzyloxy)-3,5-difluorobiphenyl-4-yl)methyl)-1-(2-methoxyethyl)-1H-benzo[d]imidazole-6-carboxylic acid] | 14.3% | 42 nM
O=C(O)c1ccc2nc(Cc3ccc(-c4cccc(OCc5cc(F)cc(Cl)c5)n4)c(F)c3)n(CC3CCCO3)c2c1 (stereo not drawn) [Example 100, 2-(4-(6-(3-chloro-5-fluorobenzyloxy)pyridin-2-yl)-3-fluorobenzyl)-1-((tetrahydrofuran-2-yl)methyl)-1H-benzo[d]imidazole-6-carboxylic acid] | -10.2% | 320 nM
O=C(O)c1ccc2nc(Cc3ccc(-c4cccc(OCc5ccc(Cl)cc5F)n4)c(F)c3F)n(CC3CCCO3)c2c1 (stereo not drawn) [Example 61, 2-(4-(6-(4-chloro-2-fluorobenzyloxy)pyridin-2-yl)-2,3-difluorobenzyl)-1-((tetrahydrofuran-2-yl)methyl)-1H-benzo[d]imidazole-6-carboxylic acid] | -6.72% | 8.7 nM
O=C(O)c1ccc2nc(Cc3ccc(-c4cccc(OCc5ccc(F)c(F)c5)n4)c(F)c3)n(C[C@@H]3CCO3)c2c1 [Example 125, (S)-2-(4-(6-((3,4-difluorobenzyl)oxy)pyridin-2-yl)-3-fluorobenzyl)-1-(oxetan-2-ylmethyl)-1H-benzo[d]imidazole-6-carboxylic acid] | -19.5% | 37 nM
O=C(O)c1ccc2nc(Cc3ccc(-c4cccc(OCc5ccc(C(F)(F)F)cc5)n4)c(F)c3)n(C[C@@H]3CCO3)c2c1 [Example 121, (S)-2-(3-fluoro-4-(6-((4-(trifluoromethyl)benzyl)oxy)pyridin-2-yl)benzyl)-1-(oxetan-2-ylmethyl)-1H-benzo[d]imidazole-6-carboxylic acid] | -10.7% | 15 nM
O=C(O)c1ccc2nc(Cc3c(F)cc(-c4cccc(OCc5ccc(Cl)cc5F)n4)cc3F)n(C[C@@H]3CCO3)c2c1 [Example 84, (S)-2-(4-(6-(4-chloro-2-fluorobenzyloxy)pyridin-2-yl)-2,6-difluorobenzyl)-1-(oxetan-2-ylmethyl)-1H-benzo[d]imidazole-6-carboxylic acid] | -1.15% | 4 nM
O=C(O)c1ccc2nc(Cc3ccc(-c4cccc(OCc5nc6ccccc6s5)n4)c(F)c3)n(C[C@@H]3CCO3)c2c1 [Example 132, (S)-2-(4-(6-(benzo[d]thiazol-2-ylmethoxy)pyridin-2-yl)-3-fluorobenzyl)-1-(oxetan-2-ylmethyl)-1H-benzo[d]imidazole-6-carboxylic acid] | -7.11% | 460 nM
Cc1cccc(COc2cccc(-c3ccc(Cc4nc5ccc(C(=O)O)cc5n4CC4CCCO4)c(F)c3)n2)c1 (stereo not drawn) [Example 80, 2-(2-fluoro-4-(6-(3-methylbenzyloxy)pyridin-2-yl)benzyl)-1-((tetrahydrofuran-2-yl)methyl)-1H-benzo[d]imidazole-6-carboxylic acid] | -25.2% | 190 nM
N#Cc1ccc(COc2cc(-c3ccc(Cc4nc5ccc(C(=O)O)cc5n4CC4CCCO4)c(F)c3)ccc2F)c(F)c1 (stereo not drawn) [Example 96, 2-((3′-(4-cyano-2-fluorobenzyloxy)-3,4′-difluorobiphenyl-4-yl)methyl)-1-((tetrahydrofuran-2-yl)methyl)-1H-benzo[d]imidazole-6-carboxylic acid] | 5.19% | 830 nM
COCCn1c(Cc2ccc(-c3cccc(OCc4ccc(C#N)cc4F)n3)cc2F)nc2ccc(C(=O)O)cc21 [Example 25, 2-(4-(6-(4-cyano-2-fluorobenzyloxy)pyridin-2-yl)-2-fluorobenzyl)-1-(2-methoxyethyl)-1H-benzo[d]imidazole-6-carboxylic acid] | 18.9% | 43 nM
N#Cc1ccc(COc2cccc(-c3ccc(Cc4nc5ccc(C(=O)O)cc5n4C[C@@H]4CCCO4)cc3F)n2)c(F)c1 [Example 67, (S)-2-(4-(6-(4-cyano-2-fluorobenzyloxy)pyridin-2-yl)-3-fluorobenzyl)-1-((tetrahydrofuran-2-yl)methyl)-1H-benzo[d]imidazole-6-carboxylic acid] | 0.85% | 11 nM
O=C(O)c1ccc2nc(Cc3ccc(-c4cccc(OCc5c(F)cccc5Cl)n4)c(F)c3)n(CC3CCCO3)c2c1 (stereo not drawn) [Example 101, 2-(4-(6-(2-chloro-6-fluorobenzyloxy)pyridin-2-yl)-3-fluorobenzyl)-1-((tetrahydrofuran-2-yl)methyl)-1H-benzo[d]imidazole-6-carboxylic acid] | -2.37% | 320 nM
N#Cc1ccc(COc2cccc(-c3ccc(Cc4nc5ccc(C(=O)O)cc5n4C[C@@H]4CCO4)c(F)c3F)n2)c(F)c1 [Example 113, (S)-2-(4-(6-((4-cyano-2-fluorobenzyl)oxy)pyridin-2-yl)-2,3-difluorobenzyl)-1-(oxetan-2-ylmethyl)-1H-benzo[d]imidazole-6-carboxylic acid] | -4.94% | < 3.2 nM
O=C(O)c1ccc2nc(Cc3ccc(-c4cccc(OCc5ccc([N+](=O)[O-])cc5)n4)cc3F)n(CC3CCCO3)c2c1 (stereo not drawn) [Example 88, 2-(2-fluoro-4-(6-(4-nitrobenzyloxy)pyridin-2-yl)benzyl)-1-((tetrahydrofuran-2-yl)methyl)-1H-benzo[d]imidazole-6-carboxylic acid] | 22.1% | 16 nM
O=C(O)c1ccc2nc(Cc3ccc(-c4cccc(OCc5ccc(Cl)cc5F)c4)cc3)n(CC3CCCO3)c2c1 (stereo not drawn) [Example 24, 2-((3′-(4-chloro-2-fluorobenzyloxy)biphenyl-4-yl)methyl)-1-((tetrahydrofuran-2-yl)methyl)-1H-benzo[d]imidazole-6-carboxylic acid] | -7.68% | 130 nM
N#Cc1ccc(COc2cccc(-c3ccc(Cc4nc5ccc(C(=O)O)cc5n4CC4CCCO4)c(F)c3)c2)c(F)c1 (stereo not drawn) [Example 14, 2-((3′-(4-cyano-2-fluorobenzyloxy)-3-fluorobiphenyl-4-yl)methyl)-1-((tetrahydrofuran-2-yl)methyl)-1H-benzo[d]imidazole-6-carboxylic acid] | -6.08% | 93 nM
N#Cc1ccc(COc2cccc(-c3ccc(Cc4nc5ccc(C(=O)O)cc5n4CC4CCCO4)cc3F)c2)c(F)c1 (stereo not drawn) [Example 9, 2-((3′-(4-cyano-2-fluorobenzyloxy)-2-fluorobiphenyl-4-yl)methyl)-1-((tetrahydrofuran-2-yl)methyl)-1H-benzo[d]imidazole-6-carboxylic acid] | 0.48% | 75 nM
O=C(O)c1ccc2nc(Cc3ccc(-c4ccc(F)c(OCc5ccc(Cl)cc5F)c4)cn3)n(CC3CCCO3)c2c1 (stereo not drawn) [Example 102, 2-((5-(3-(4-chloro-2-fluorobenzyloxy)-4-fluorophenyl)pyridin-2-yl)methyl)-1-((tetrahydrofuran-2-yl)methyl)-1H-benzo[d]imidazole-6-carboxylic acid] | -31.9% | 460 nM
O=C(O)c1ccc2nc(Cc3ccc(-c4cccc(OCc5ccc(Cl)cc5)n4)c(F)c3)n(C[C@@H]3CCO3)c2c1 [Example 123, (S)-2-(4-(6-((4-chlorobenzyl)oxy)pyridin-2-yl)-3-fluorobenzyl)-1-(oxetan-2-ylmethyl)-1H-benzo[d]imidazole-6-carboxylic acid] | -0.45% | 14 nM
O=C(O)c1ccc2nc(Cc3cc(F)c(-c4cccc(OCc5ccc(Cl)cc5F)n4)cc3F)n(C[C@@H]3CCO3)c2c1 [Example 86, (S)-2-(4-(6-(4-chloro-2-fluorobenzyloxy)pyridin-2-yl)-2,5-difluorobenzyl)-1-(oxetan-2-ylmethyl)-1H-benzo[d]imidazole-6-carboxylic acid] | 8.93% | < 3.2 nM
O=C(O)c1ccc2nc(Cc3ccc(-c4cccc(OCc5ccc(Cl)c(F)c5)n4)c(F)c3)n(CC3CCCO3)c2c1 (stereo not drawn) [Example 99, 2-(4-(6-(4-chloro-3-fluorobenzyloxy)pyridin-2-yl)-3-fluorobenzyl)-1-((tetrahydrofuran-2-yl)methyl)-1H-benzo[d]imidazole-6-carboxylic acid] | -0.33% | 70 nM
COCCn1c(Cc2ccc(-c3cccc(OCc4ccc(Cl)cc4F)n3)cc2[N+](=O)[O-])nc2ccc(C(=O)O)cc21 [Example 5, 2-(4-(6-(4-chloro-2-fluorobenzyloxy)pyridin-2-yl)-2-nitrobenzyl)-1-(2-methoxyethyl)-1H-benzo[d]imidazole-6-carboxylic acid] | 2.74% | 620 nM
N#Cc1ccc(COc2cccc(-c3ccc(Cc4nc5ccc(C(=O)O)cc5n4C[C@@H]4CCO4)cc3F)n2)cc1 [Example 118, (S)-2-(4-(6-((4-cyanobenzyl)oxy)pyridin-2-yl)-3-fluorobenzyl)-1-(oxetan-2-ylmethyl)-1H-benzo[d]imidazole-6-carboxylic acid] | 20.7% | 4.3 nM
